Data reported in ChEMBL document CHEMBL4507263, “Data for DCP probe BAY-474” (2021).

Key:
[1] = target: Proto-oncogene tyrosine-protein kinase ROS (Homo sapiens) (UniProt P08922); details: Compound concentration 1000.0 nM
[2] = target: SRSF protein kinase 2 (Homo sapiens) (UniProt P78362); details: Compound concentration 1000.0 nM
[3] = target: 5'-AMP-activated protein kinase catalytic subunit alpha-2 (Homo sapiens) (UniProt P54646); details: Compound concentration 1000.0 nM
[4] = test system: Epidermal growth factor receptor (Homo sapiens), P00533 [UNDEFINED MUTATION]; details: Compound concentration 1000.0 nM
[5] = target: Ribosomal protein S6 kinase alpha-6 (Homo sapiens) (UniProt Q9UK32); details: Compound concentration 1000.0 nM
[6] = target: Serine/threonine-protein kinase PRP4 homolog (Homo sapiens) (UniProt Q13523); details: Compound concentration 1000.0 nM
[7] = target: Serine/threonine-protein kinase/endoribonuclease IRE1 (Homo sapiens) (UniProt O75460); details: Compound concentration 1000.0 nM
[8] = target: Serine/threonine-protein kinase 24 (Homo sapiens) (UniProt Q9Y6E0); details: Compound concentration 1000.0 nM
[9] = target: Serine/threonine-protein kinase MARK2 (Homo sapiens) (UniProt Q7KZI7); details: Compound concentration 1000.0 nM
[10] = target: Serine/threonine-protein kinase D3 (Homo sapiens) (UniProt O94806); details: Compound concentration 1000.0 nM
[11] = target: Cyclin-dependent kinase 18 (Homo sapiens) (UniProt Q07002); details: Compound concentration 1000.0 nM
[12] = target: Ephrin type-A receptor 6 (Homo sapiens) (UniProt Q9UF33); details: Compound concentration 1000.0 nM
[13] = target: Mitogen-activated protein kinase kinase kinase kinase 5 (Homo sapiens) (UniProt Q9Y4K4); details: Compound concentration 1000.0 nM
[14] = target: Dual specificity protein kinase CLK2 (Homo sapiens) (UniProt P49760); details: Compound concentration 1000.0 nM
[15] = target: Dual specificity protein kinase CLK4 (Homo sapiens) (UniProt Q9HAZ1); details: Compound concentration 1000.0 nM
[16] = target: Serine/threonine-protein kinase N2 (Homo sapiens) (UniProt Q16513); details: Compound concentration 1000.0 nM
[17] = test system: Tyrosine-protein kinase ABL1 (Homo sapiens), P00519 [Q252H]; details: Compound concentration 1000.0 nM
[18] = test system: Hepatocyte growth factor receptor (Homo sapiens), P08581 [M1250T]; details: Compound concentration 1000.0 nM
[19] = target: Ribosomal protein S6 kinase alpha-4 (Homo sapiens) (UniProt O75676); details: Compound concentration 1000.0 nM
[20] = target: Serine/threonine-protein kinase tousled-like 2 (Homo sapiens) (UniProt Q86UE8); details: Compound concentration 1000.0 nM
[21] = target: Non-receptor tyrosine-protein kinase TYK2 (Homo sapiens) (UniProt P29597); details: Compound concentration 1000.0 nM
[22] = test system: ALK tyrosine kinase receptor (Homo sapiens), Q9UM73 [L1196M]; details: Compound concentration 1000.0 nM
[23] = test system: Epidermal growth factor receptor (Homo sapiens), P00533 [G719C]; details: Compound concentration 1000.0 nM
[24] = target: MAP kinase-activated protein kinase 5 (Homo sapiens) (UniProt Q8IW41); details: Compound concentration 1000.0 nM
[25] = test system: Fibroblast growth factor receptor 3 (Homo sapiens), P22607 [G697C]; details: Compound concentration 1000.0 nM
[26] = target: Ephrin type-A receptor 7 (Homo sapiens) (UniProt Q15375); details: Compound concentration 1000.0 nM
[27] = target: Serine/threonine-protein kinase LATS1 (Homo sapiens) (UniProt O95835); details: Compound concentration 1000.0 nM
[28] = test system: eIF-2-alpha kinase GCN2 (Homo sapiens), Q9P2K8 [S808G]; details: Compound concentration 1000.0 nM
[29] = target: TGF-beta receptor type-1 (Homo sapiens) (UniProt P36897); details: Compound concentration 1000.0 nM
[30] = target: Protein kinase C theta type (Homo sapiens) (UniProt Q04759); details: Compound concentration 1000.0 nM
[31] = target: Tyrosine-protein kinase Tec (Homo sapiens) (UniProt P42680); details: Compound concentration 1000.0 nM
[32] = target: Mitogen-activated protein kinase 4 (Homo sapiens) (UniProt P31152); details: Compound concentration 1000.0 nM
[33] = target: Mast/stem cell growth factor receptor Kit (Homo sapiens) (UniProt P10721); details: Compound concentration 1000.0 nM
[34] = target: Death-associated protein kinase 1 (Homo sapiens) (UniProt P53355); details: Compound concentration 1000.0 nM
[35] = target: Cyclin-dependent kinase 14 (Homo sapiens) (UniProt O94921); details: Compound concentration 1000.0 nM
[36] = target: Beta-adrenergic receptor kinase 1 (Homo sapiens) (UniProt P25098); details: Compound concentration 1000.0 nM
hERG (KCNH2) = hERG (KCNH2) (Homo sapiens, UniProt Q12809); experiment: Inhibition of Potassium Channel hERG at 10 µM in the Eurofins-Panlabs radioligand binding assay (Eurofins_assay_265900); set-up: ligand concentration 1.5 nM, non-specific ligand with concentration Astemizole, incubation time 60 min, incubation temperature 25 °C; details: HEK-293 cells expressing human recombinant hERG, probe [3H] Astemizole, compound concentration 10 uM
[37] = target: 5-hydroxytryptamine receptor 2B (Homo sapiens) (UniProt P41595); details: Compound concentration 10.0 uM
[38] = target: Casein kinase II subunit alpha' (Homo sapiens) (UniProt P19784); experiment: CK2alpha2 (h) Millipore kinase activity assay; details: Compound concentration 1.0 uM
[39] = target: Serine/threonine-protein kinase TAO3 (Homo sapiens) (UniProt Q9H2K8); experiment: TAO3 (h) Millipore kinase activity assay; details: Compound concentration 1.0 uM
[40] = target: Activated CDC42 kinase 1 (Homo sapiens) (UniProt Q07912); experiment: ACK1 (h) Millipore kinase activity assay; details: Compound concentration 1.0 uM
[41] = target: Fibroblast growth factor receptor 3 (Homo sapiens) (UniProt P22607); experiment: FGFR3 (h) Millipore kinase activity assay; details: Compound concentration 1.0 uM
[42] = target: Dual specificity mitogen-activated protein kinase kinase 6 (Homo sapiens) (UniProt P52564); experiment: MKK6 (h) Millipore kinase activity assay; details: Compound concentration 1.0 uM
[43] = target: Angiopoietin-1 receptor (Homo sapiens) (UniProt Q02763); experiment: Tie2 (h) Millipore kinase activity assay; details: Compound concentration 1.0 uM
[44] = target: Serine/threonine-protein kinase D1 (Homo sapiens) (UniProt Q15139); experiment: PKCmu (h) Millipore kinase activity assay; details: Compound concentration 1.0 uM

Sequence of Proto-oncogene tyrosine-protein kinase ROS (Homo sapiens) (P08922 whole entry): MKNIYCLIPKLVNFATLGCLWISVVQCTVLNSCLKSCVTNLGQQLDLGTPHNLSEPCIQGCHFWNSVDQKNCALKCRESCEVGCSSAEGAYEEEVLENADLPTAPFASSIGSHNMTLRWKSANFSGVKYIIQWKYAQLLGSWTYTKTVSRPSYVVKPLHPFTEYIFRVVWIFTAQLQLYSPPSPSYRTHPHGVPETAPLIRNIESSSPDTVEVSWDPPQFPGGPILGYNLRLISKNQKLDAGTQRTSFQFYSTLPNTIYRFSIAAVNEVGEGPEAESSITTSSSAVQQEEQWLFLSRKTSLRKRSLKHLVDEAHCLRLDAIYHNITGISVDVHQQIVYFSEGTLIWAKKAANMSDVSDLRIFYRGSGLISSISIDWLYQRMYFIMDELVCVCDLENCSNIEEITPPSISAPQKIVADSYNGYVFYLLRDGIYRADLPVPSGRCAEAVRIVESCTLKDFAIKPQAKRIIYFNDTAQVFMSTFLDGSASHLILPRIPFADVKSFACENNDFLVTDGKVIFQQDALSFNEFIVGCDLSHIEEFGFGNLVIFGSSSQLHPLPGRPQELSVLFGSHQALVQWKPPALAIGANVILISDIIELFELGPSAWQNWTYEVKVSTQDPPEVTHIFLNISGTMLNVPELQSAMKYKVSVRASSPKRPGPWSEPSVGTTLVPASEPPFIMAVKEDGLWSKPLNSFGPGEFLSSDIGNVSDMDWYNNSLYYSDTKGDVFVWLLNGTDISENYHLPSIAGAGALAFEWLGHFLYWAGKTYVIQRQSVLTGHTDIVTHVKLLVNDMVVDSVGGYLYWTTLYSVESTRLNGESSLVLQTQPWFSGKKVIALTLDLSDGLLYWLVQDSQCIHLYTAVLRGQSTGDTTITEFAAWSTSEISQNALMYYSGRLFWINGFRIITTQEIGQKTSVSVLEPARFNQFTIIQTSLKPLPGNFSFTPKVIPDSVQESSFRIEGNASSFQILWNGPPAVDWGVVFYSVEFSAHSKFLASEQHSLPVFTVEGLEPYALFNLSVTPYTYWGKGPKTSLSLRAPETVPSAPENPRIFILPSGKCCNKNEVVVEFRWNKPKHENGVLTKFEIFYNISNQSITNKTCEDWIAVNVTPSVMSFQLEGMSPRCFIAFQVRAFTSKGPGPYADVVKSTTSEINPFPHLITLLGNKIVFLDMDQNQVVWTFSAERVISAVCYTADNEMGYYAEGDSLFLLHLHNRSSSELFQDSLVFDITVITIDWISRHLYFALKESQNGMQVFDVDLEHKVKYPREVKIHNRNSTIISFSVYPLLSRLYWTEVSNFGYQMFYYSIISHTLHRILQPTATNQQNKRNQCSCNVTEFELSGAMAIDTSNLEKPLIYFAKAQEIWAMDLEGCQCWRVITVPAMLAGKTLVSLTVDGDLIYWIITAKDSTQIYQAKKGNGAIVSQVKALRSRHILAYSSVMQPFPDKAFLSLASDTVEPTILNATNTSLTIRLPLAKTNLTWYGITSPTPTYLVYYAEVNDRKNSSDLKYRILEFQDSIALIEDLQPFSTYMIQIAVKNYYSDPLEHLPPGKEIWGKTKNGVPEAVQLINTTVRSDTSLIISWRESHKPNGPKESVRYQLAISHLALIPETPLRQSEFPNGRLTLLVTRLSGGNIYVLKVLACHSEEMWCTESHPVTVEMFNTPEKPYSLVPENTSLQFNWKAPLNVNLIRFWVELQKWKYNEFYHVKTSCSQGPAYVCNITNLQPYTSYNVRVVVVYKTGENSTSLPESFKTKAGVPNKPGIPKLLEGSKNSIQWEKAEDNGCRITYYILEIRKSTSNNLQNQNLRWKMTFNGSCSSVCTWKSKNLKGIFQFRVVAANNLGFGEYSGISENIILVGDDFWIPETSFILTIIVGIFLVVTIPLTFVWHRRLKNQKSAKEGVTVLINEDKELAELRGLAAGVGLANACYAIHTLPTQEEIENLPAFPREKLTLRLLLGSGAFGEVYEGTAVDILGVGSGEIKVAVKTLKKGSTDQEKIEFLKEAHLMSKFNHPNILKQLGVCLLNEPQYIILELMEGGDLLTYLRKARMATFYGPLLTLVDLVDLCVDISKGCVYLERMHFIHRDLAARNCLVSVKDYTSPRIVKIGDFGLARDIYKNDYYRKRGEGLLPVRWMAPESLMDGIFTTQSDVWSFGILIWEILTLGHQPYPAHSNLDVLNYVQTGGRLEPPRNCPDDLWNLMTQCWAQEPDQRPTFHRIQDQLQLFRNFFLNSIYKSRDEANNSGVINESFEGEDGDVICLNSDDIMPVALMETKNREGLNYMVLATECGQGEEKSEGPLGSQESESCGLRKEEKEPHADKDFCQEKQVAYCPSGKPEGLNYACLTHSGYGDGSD
Sequence of Activated CDC42 kinase 1 (Homo sapiens) (Q07912 whole entry, looked up): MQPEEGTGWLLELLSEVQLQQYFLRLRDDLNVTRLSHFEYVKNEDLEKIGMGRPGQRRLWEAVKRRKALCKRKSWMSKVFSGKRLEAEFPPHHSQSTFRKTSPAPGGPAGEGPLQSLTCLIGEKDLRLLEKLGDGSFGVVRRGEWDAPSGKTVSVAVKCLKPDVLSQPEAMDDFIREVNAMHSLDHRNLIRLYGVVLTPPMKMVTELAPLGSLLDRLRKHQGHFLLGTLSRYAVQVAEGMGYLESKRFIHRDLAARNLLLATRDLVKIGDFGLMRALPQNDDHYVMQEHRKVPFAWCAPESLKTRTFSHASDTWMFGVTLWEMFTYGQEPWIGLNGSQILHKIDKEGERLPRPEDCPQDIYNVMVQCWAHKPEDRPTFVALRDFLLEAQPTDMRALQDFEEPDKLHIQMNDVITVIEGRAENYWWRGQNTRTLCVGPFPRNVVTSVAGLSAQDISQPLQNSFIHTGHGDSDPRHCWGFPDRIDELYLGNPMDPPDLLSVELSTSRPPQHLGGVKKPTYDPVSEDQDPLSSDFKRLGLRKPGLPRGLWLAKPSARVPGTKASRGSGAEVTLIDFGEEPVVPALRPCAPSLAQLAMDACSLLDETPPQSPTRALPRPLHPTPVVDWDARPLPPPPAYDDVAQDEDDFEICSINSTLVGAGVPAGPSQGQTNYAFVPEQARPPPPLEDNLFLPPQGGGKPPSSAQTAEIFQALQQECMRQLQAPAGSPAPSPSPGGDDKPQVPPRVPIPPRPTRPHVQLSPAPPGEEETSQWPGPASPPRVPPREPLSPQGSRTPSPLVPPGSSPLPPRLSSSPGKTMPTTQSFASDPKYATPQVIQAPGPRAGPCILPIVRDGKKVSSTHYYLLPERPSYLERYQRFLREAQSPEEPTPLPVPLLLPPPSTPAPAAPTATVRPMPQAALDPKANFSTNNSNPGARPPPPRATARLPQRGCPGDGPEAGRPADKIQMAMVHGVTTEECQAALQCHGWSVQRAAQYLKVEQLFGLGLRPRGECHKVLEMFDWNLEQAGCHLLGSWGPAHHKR
Sequence of Cyclin-dependent kinase 14 (Homo sapiens) (O94921 whole entry): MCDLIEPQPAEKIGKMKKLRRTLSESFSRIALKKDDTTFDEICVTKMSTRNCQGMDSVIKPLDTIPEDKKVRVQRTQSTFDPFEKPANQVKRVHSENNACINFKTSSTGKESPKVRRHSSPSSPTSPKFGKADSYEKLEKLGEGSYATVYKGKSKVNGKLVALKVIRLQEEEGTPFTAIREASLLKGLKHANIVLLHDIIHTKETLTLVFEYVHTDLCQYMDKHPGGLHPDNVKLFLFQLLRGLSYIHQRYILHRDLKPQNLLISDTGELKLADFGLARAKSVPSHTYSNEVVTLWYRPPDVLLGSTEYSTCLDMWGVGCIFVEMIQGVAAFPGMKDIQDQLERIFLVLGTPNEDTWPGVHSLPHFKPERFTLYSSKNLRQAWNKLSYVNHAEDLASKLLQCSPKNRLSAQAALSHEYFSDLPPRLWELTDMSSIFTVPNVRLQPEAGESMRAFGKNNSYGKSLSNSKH
Sequence of Tyrosine-protein kinase Tec (Homo sapiens) (P42680 whole entry): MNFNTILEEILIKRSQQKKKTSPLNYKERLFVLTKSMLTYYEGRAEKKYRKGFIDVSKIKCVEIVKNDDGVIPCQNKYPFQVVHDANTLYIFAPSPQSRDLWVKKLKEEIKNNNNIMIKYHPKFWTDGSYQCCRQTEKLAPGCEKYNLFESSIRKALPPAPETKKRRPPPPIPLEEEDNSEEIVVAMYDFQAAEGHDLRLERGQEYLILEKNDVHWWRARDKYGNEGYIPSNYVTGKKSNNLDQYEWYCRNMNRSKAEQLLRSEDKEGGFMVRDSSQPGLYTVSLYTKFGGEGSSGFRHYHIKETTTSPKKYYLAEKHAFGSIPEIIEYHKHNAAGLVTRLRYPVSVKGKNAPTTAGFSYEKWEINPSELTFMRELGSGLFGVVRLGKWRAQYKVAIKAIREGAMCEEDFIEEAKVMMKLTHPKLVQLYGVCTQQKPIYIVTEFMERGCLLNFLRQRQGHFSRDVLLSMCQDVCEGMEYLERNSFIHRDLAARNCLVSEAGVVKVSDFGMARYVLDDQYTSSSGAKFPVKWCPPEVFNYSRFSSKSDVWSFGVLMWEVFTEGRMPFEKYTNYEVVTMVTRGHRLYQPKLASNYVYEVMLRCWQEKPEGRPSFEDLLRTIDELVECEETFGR
Sequence of Cyclin-dependent kinase 18 (Homo sapiens) (Q07002 whole entry): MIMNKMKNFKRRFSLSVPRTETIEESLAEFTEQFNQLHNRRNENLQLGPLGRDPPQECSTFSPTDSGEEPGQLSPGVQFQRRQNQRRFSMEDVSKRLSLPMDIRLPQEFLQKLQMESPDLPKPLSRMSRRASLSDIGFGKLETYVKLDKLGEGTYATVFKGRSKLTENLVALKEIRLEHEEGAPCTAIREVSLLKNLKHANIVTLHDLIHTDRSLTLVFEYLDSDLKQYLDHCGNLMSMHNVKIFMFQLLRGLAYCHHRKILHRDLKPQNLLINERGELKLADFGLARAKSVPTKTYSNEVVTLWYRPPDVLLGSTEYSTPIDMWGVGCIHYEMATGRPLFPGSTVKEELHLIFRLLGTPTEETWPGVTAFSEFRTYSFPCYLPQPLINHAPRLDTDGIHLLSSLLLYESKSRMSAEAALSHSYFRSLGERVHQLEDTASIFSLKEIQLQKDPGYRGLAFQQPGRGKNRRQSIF

Structure (SMILES): CC1=C(C#N)[C@@H](c2ccc3[nH]nc(C)c3c2)C(C#N)=C(c2ccc(Cl)cc2)N1 [BAY-827]
- residual activity [1]: 100%
- residual activity [2]: 100%
- residual activity [3]: 95.3%
- residual activity [4]: 80.4%
- residual activity [5]: 100%
- residual activity [6]: 100%
- residual activity [7]: 100%
- residual activity [8]: 100%
- residual activity [9]: 100%
- residual activity [10]: 100%
- residual activity [11]: 100%
- residual activity [12]: 100%
- residual activity [13]: 54%
- residual activity [14]: 100%
- residual activity [15]: 100%
- residual activity [16]: 74.6%
- residual activity [17]: 100%
- residual activity [18]: 25.1%
- residual activity [19]: 81.4%
- residual activity [20]: 100%
- residual activity [21]: 100%
- residual activity [22]: 100%
- residual activity [23]: 100%
- residual activity [24]: 100%
- residual activity [25]: 100%
- residual activity [26]: 91.2%
- residual activity [27]: 100%
- residual activity [28]: 89.9%
- residual activity [29]: 62.4%
- residual activity [30]: 100%
- residual activity [31]: 100%
- residual activity [32]: 89.6%
- residual activity [33]: 95.4%
- residual activity [34]: 100%
- residual activity [35]: 94.4%
- residual activity [36]: 88.1%

Structure (SMILES): CC1=C(C#N)C(c2ccc3[nH]nc(C)c3c2)C(C#N)=C(C)N1 [BAY-474]
- inhibition at 60 min, 10 µM (hERG (KCNH2)): 7% (not active)
- inhibition [37]: 4%
- inhibition [38]: -2%
- inhibition [39]: -8%
- inhibition [40]: 2%
- inhibition [41]: 10%
- inhibition [42]: 5%
- inhibition [43]: 10%
- inhibition [44]: 15%
